Legend:
Experiment in all cases: normalized area under the dose-response curve (viability relative to DMSO control) (fraction); higher = less sensitive (more viable cells)
Settings in all cases: exposure time not given
[1] = system: RPMI 8226 (cancer type: MM)
Method: (§1)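 25 myeloma and 15 non-Hodgkin lymphoma cell lines were exposed to each of 76 drugs as 7-point log dilutions (0.01 nM–10 µM) in duplicate. Viability was read with CellTiter-Glo and normalised to DMSO (0.1%) and staurosporine (10 µM) plate controls. Normalised AUC was calculated by the trapezoidal method relative to the negative control.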

[2] = system: SKMM2 (cancer type: MM)
Method: as §1

[3] = system: JeKo-1 (cancer type: Mantle)
Method: as §1

[4] = system: L363 (cancer type: MM)
Method: as §1

[5] = system: SU-DHL1 (cancer type: TCL)
Method: as §1

[6] = system: U266 (cancer type: MM)
Method: as §1

[7] = system: KMS18 (cancer type: MM)
Method: as §1

[8] = system: JVM2 (cancer type: Mantle)
Method: as §1

[9] = system: NCI-H929 (cancer type: MM)
Method: as §1

[10] = system: OCI-MY5 (cancer type: MM)
Method: as §1

[11] = system: OCI-MY5/CRBN (cancer type: MM)
Method: as §1

[12] = system: Mino (cancer type: Mantle)
Method: as §1

[13] = system: OCI-MY7 (cancer type: MM)
Method: as §1

[14] = system: SU-DHL6 (cancer type: DLBCL)
Method: as §1

[15] = system: Karpas-299 (cancer type: TCL)
Method: as §1

[16] = system: OPM2 (cancer type: MM)
Method: as §1

[17] = system: OCI-LY19 (cancer type: DLBCL)
Method: as §1

[18] = system: KMS28BM (cancer type: MM)
Method: as §1

[19] = system: OCI-LY3 (cancer type: DLBCL)
Method: as §1

[20] = system: MM1.R (cancer type: MM)
Method: as §1

[21] = system: Granta-519 (cancer type: Mantle)
Method: as §1

[22] = system: AMO1 (cancer type: MM)
Method: as §1

[23] = system: KMS11 (cancer type: MM)
Method: as §1

[24] = system: KMS26 (cancer type: MM)
Method: as §1

[25] = system: HuT 78 (cancer type: TCL)
Method: as §1

[26] = system: LP1 (cancer type: MM)
Method: as §1

[27] = system: OCI-LY1 (cancer type: DLBCL)
Method: as §1

[28] = system: KMS34 (cancer type: MM)
Method: as §1

[29] = system: My-La (cancer type: TCL)
Method: as §1

[30] = system: OCI-MY5/Vec (cancer type: MM)
Method: as §1

[31] = system: FR4 (cancer type: MM)
Method: as §1

[32] = system: MM1.S (cancer type: MM)
Method: as §1

[33] = system: XG2 (cancer type: MM)
Method: as §1

[34] = system: KMS12PE (cancer type: MM)
Method: as §1

[35] = system: EJM (cancer type: MM)
Method: as §1

[36] = system: SR-786 (cancer type: TCL)
Method: as §1

[37] = system: KMS28PE (cancer type: MM)
Method: as §1

[38] = system: SU-DHL2 (cancer type: DLBCL)
Method: as §1

[39] = system: JJN3 (cancer type: MM)
Method: as §1

[40] = system: Se-Ax (cancer type: TCL)
Method: as §1

Compound: CC(C)C[C@H](NC(=O)[C@H](Cc1ccccc1)NC(=O)c1cnccn1)B(O)O [Bortezomib]
- normalized area under the dose-response curve [1]: 0.261
- normalized area under the dose-response curve [2]: 0.212
- normalized area under the dose-response curve [3]: 0.009
- normalized area under the dose-response curve [4]: 0.0891
- normalized area under the dose-response curve [5]: 0.1
- normalized area under the dose-response curve [6]: 0.167
- normalized area under the dose-response curve [7]: 0.0645
- normalized area under the dose-response curve [8]: 0.0575
- normalized area under the dose-response curve [9]: 0.09
- normalized area under the dose-response curve [10]: 0.116
- normalized area under the dose-response curve [11]: 0.0146
- normalized area under the dose-response curve [12]: 0.0129
- normalized area under the dose-response curve [13]: 0.08
- normalized area under the dose-response curve [14]: 0.536
- normalized area under the dose-response curve [15]: 0.332
- normalized area under the dose-response curve [16]: 0.197
- normalized area under the dose-response curve [17]: 0.111
- normalized area under the dose-response curve [18]: 0.0704
- normalized area under the dose-response curve [19]: 0.0249
- normalized area under the dose-response curve [20]: 0.06
- normalized area under the dose-response curve [21]: 0.0456
- normalized area under the dose-response curve [22]: 0.0751
- normalized area under the dose-response curve [23]: 0.131
- normalized area under the dose-response curve [24]: 0.0685
- normalized area under the dose-response curve [25]: 0.192
- normalized area under the dose-response curve [26]: 0.255
- normalized area under the dose-response curve [27]: 0.0798
- normalized area under the dose-response curve [28]: 0.196
- normalized area under the dose-response curve [29]: 0.23
- normalized area under the dose-response curve [30]: 0.015
- normalized area under the dose-response curve [31]: 0.7
- normalized area under the dose-response curve [32]: 0.09
- normalized area under the dose-response curve [33]: 0.05
- normalized area under the dose-response curve [34]: 0.26
- normalized area under the dose-response curve [35]: 0.0632
- normalized area under the dose-response curve [36]: 0.285
- normalized area under the dose-response curve [37]: 0.0881
- normalized area under the dose-response curve [38]: 0.0391
- normalized area under the dose-response curve [39]: 0.343
- normalized area under the dose-response curve [40]: 0.102

Compound: COc1cc(Nc2c(C#N)cnc3cc(OCCCN4CCN(C)CC4)c(OC)cc23)c(Cl)cc1Cl [Bosutinib]
- normalized area under the dose-response curve [1]: 0.651
- normalized area under the dose-response curve [2]: 0.697
- normalized area under the dose-response curve [3]: 0.889
- normalized area under the dose-response curve [4]: 0.525
- normalized area under the dose-response curve [5]: 0.667
- normalized area under the dose-response curve [6]: 0.874
- normalized area under the dose-response curve [7]: 0.798
- normalized area under the dose-response curve [8]: 0.534
- normalized area under the dose-response curve [9]: 0.8
- normalized area under the dose-response curve [10]: 0.39
- normalized area under the dose-response curve [11]: 0.933
- normalized area under the dose-response curve [12]: 0.653
- normalized area under the dose-response curve [13]: 0.79
- normalized area under the dose-response curve [14]: 0.924
- normalized area under the dose-response curve [15]: 0.701
- normalized area under the dose-response curve [16]: 0.606
- normalized area under the dose-response curve [17]: 0.898
- normalized area under the dose-response curve [18]: 0.629
- normalized area under the dose-response curve [19]: 0.792
- normalized area under the dose-response curve [20]: 0.77
- normalized area under the dose-response curve [21]: 0.771
- normalized area under the dose-response curve [22]: 0.45
- normalized area under the dose-response curve [23]: 0.5
- normalized area under the dose-response curve [24]: 0.863
- normalized area under the dose-response curve [25]: 0.714
- normalized area under the dose-response curve [26]: 0.451
- normalized area under the dose-response curve [27]: 0.856
- normalized area under the dose-response curve [28]: 0.447
- normalized area under the dose-response curve [29]: 0.795
- normalized area under the dose-response curve [30]: 0.914
- normalized area under the dose-response curve [31]: 0.598
- normalized area under the dose-response curve [32]: 0.83
- normalized area under the dose-response curve [33]: 0.501
- normalized area under the dose-response curve [34]: 0.58
- normalized area under the dose-response curve [35]: 0.663
- normalized area under the dose-response curve [36]: 0.872
- normalized area under the dose-response curve [37]: 0.54
- normalized area under the dose-response curve [38]: 0.836
- normalized area under the dose-response curve [39]: 0.571
- normalized area under the dose-response curve [40]: 0.736

— the supplement of paper PMC7214452
